Experimental findings from US20250235413A1, “MODIFIED FORMS OF AMBROXOL FOR THERAPEUTIC USE” (Zywie, LLC, priority 2021, published 2025) are described below.

The nature of data set [1]: Metabolic stability in human liver microsomes. The following applies: human liver microsomes 1 mg/mL protein, 1 μM compound, 37° C., NADPH-regenerating system; for half-life at 1 μM: 0-120 min, read-out: In vitro elimination half-life t1/2; for microsomal CLint at 1 μM: read-out: In vitro intrinsic clearance CLint-microsomes. It is filed as in vitro ADME. The procedure: Study design—Test compounds (ambroxol and deuterated analogs) were dissolved in dimethylsulfoxide (DMSO) to prepare 1 mM stock solutions. The compounds were added to preparations of human liver microsomes (200 μL per incubation at a 1 mg/mL protein concentration) such that the final compound concentration was 1 μM. The samples were incubated at 37° C. in the presence of a reduced nicotinamide adenine dinucleotide phosphate (NADPH)-regenerating system (NADP, 1 mM, pH 7.4; glucose-6-phosphate, 5 mM, pH 7.4; glucose-6-phosphate dehydrogenase, 1 unit/mL)). A positive control (midazolam, 1 μM, 0.1 mg/mL protein) was incubated concurrently to ensure the microsome preparation was performing as expected. Samples were obtained at t=0, 30, 60, and 120 min and quenched by addition of acetonitrile.
Quenched samples were analyzed by liquid chromatography coupled to tandem mass spectrometry detection (LC/MS-MS). The concentration of the test compounds at each time point were converted to percent remaining relative to the concentration of the compound at time t=0 (which serves as the 100% value). All data points were included in data processing. The rate constant of elimination (kel, min^−1) of each test compound was determined from the time course of disappearance of the parent compound based on fitting the experimental data to a single exponential decay formula (At=Aoe^−kelt, where At is the % remaining at time t, Ao is 100%, kel is the elimination rate constant, and t is time). The in vitro half-life (t1/2) was determined from kel based on the formula: t1/2=ln(2)/kel. The rate constant of elimination was also used to calculate the in vitro intrinsic clearance CLint-microsomes (μL/min/mg protein).
In general terms: Liver microsomes are vesicles of endoplasmic reticulum, rich in cytochrome P450 enzymes.

For another data set, the system named is male BDF1 mice. Nature of the data set: Lifespan study in mice fed compound in chow. Type of data set: in vivo, mouse. The following applies: 50 mg/kg daily as chow supplement, vs control (FIG. 3).
A further data set concerns mice. Nature of the data set: Cognitive acuity test (novel place recognition) in mice at 7 months. Type of data set: in vivo, mouse. From the text:
This is a cognitive test to measure short-term working memory, involving recognition of a familiar object found in an unfamiliar place (see Magen et al., Eur J Neurosci 35:870-882, 2012; Magen and Chesselet, J Parkinson's Disease 1:217-227, 2011). A Discrimination Index (DI)=(tnovel−tfamiliar)/(tnovel+tfamiliar) was used to assess the time spent exploring near the object in a novel place (“tnovel”) vs. the total exploration time overall. Discrimination Index scores greater than zero are considered to indicate good place recognition memory.
Three groups of mice, with at least 13 mice in each group, are given a cognitive acuity test at 7 months. The three groups of mice are: “High Dose” Group (150 mg/kg/day of compound 2), “Low Dose” (50 mg/kg/day of compound 2) Group, and a Control Group (no compound 2).
The dosage results are substantially lower than doses previously observed to effectively promote GCase chaperoning activity in mice (e.g., Migdalska-Richards et al., Ann Neurol 80:766-775, 2016).

Protocol for male BDF1 mice: Group 1 represents control animals that were not administered ambroxol; and Group 2 represents animals administered 50 mg/kg (body weight) of ambroxol daily as a chow supplement, starting at 2 months of age.
Weaned male BDF1 mice raised from pups, housed 1-4 animals per cage and fed Teklad 7013 NIH-31 rodent chow and water ad libitum, at 2 months of age, are divided into two roughly equal groups of 22-25 animals. One group continues to be fed the Teklad chow as before (control); the other group is switched to Teklad chow formulated with compound 2 at 300 mg per kg of chow. This formulation was designed, based on the average ad libitum chow consumption of an adult male BDF1 mouse, to deliver 50 mg/kg/day (based on body mass) to each mouse in the treated group. Mice are maintained on this diet until they die naturally or until they reach 16 months of age, at which time the experiment ends. During the course of the experiment, all mice are periodically removed from their cages and handled in the course of subjecting them to various sensorimotor, cognitive, and/or behavioral tests.
Group 1 represents control animals that were not administered ambroxol; Group 2 represents animals administered 50 mg/kg of ambroxol daily as a chow supplement, starting at 2 months of age.

Take `[2H]C([2H])(N[C@H]1CC[C@H](O)CC1)c1cc(Br)cc(Br)c1N` [ZW-001]: in data set [1], the half-life at 1 μM is 1.65 h and the microsomal CLint at 1 μM is 7 µL/min/mg.

`Nc1c(Br)cc(Br)cc1CN[C@H]1CC[C@H](O)CC1` [ambroxol, trans-4-((2-amino-3,5-dibromobenzyl)amino)cyclohexanol]: in data set [1], the half-life at 1 μM turned out to be 1.01 h and the microsomal CLint at 1 μM worked out at 11.4 µL/min/mg. The Lifespan result with male BDF1 mice (starting at 2 months of age) was “able to increase lifespan”. In addition, the “Healthspan (health of surviving animals when sacrificed)” value in the data set with male BDF1 mice was “healthspan was extended”. For the same compound, the “Cognitive acuity, Low Dose Group” value with mice (50 mg/kg/day) is “results in between the Control Group and the “High Dose” Group”. Moreover, the “Cognitive acuity, High Dose Group” value in the data set with mice (150 mg/kg/day) is recorded as “best cognitive acuity results”. For the same compound, the Cognitive acuity entry with mice (High Dose and Low Dose vs Control (FIG. 4)) is “dose-related improvement”.
